Test results reported in ChEMBL document CHEMBL1128079, “Differential RXR & RAR activity of stilbene retinoid analogs bearing thiazole and imidazole carboxylic acids” (Bioorg Med Chem Lett, 1995).

Tests used:
Format in all cases: functional
[1] = biological target: T1, Retinoic acid receptor RXR-alpha (Homo sapiens, UniProt P19793); assay: Agonist activity for retinoic acid receptor RXR alpha in transcriptional activation assay
T1 sequence (P19793 whole entry): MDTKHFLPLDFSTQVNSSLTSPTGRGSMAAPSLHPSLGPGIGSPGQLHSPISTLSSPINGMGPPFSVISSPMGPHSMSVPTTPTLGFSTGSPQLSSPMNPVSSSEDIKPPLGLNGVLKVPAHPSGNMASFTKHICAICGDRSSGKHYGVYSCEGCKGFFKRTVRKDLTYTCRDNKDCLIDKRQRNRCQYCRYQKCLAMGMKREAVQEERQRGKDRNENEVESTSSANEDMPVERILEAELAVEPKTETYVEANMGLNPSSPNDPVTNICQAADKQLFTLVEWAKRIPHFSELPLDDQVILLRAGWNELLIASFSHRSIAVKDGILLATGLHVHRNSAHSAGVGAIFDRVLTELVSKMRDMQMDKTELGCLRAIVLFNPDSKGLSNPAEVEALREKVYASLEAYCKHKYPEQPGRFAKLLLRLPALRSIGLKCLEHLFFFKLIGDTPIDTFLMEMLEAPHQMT

[2] = biological target: T2, Retinoic acid receptor beta (Homo sapiens, UniProt P10826); assay: Agonist activity for retinoic acid receptor RAR beta in transcriptional activation assay
T2 sequence (P10826 whole entry): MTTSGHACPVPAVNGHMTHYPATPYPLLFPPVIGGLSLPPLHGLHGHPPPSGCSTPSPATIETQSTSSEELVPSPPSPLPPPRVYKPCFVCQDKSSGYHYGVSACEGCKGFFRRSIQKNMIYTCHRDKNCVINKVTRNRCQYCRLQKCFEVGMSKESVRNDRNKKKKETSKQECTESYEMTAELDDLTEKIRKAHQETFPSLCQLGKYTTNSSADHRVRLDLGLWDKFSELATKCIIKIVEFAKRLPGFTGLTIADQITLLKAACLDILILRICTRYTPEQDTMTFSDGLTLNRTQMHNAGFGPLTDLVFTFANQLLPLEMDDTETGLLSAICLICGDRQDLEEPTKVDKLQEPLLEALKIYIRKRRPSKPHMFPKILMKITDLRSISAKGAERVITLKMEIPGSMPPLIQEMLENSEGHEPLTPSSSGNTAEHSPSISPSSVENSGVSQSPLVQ

[3] = biological target: T3, Retinoic acid receptor RXR-gamma (Homo sapiens, UniProt P48443); assay: Agonist activity for retinoic acid receptor RXR gamma in transcriptional activation assay
T3 sequence (P48443 whole entry): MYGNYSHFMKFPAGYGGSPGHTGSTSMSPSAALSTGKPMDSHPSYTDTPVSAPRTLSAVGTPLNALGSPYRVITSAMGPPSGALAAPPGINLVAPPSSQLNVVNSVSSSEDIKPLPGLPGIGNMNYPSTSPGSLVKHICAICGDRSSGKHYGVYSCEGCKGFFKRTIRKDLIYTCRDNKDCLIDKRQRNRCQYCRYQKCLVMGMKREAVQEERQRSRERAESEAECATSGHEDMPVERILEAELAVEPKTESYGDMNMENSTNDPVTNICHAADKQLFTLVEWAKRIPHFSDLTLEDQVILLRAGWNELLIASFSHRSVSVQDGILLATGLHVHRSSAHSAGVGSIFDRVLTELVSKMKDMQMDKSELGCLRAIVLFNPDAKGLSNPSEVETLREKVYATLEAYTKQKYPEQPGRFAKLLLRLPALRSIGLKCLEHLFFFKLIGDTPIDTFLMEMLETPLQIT

[4] = biological target: T4, Retinoic acid receptor alpha (Homo sapiens, UniProt P10276); assay: Agonist activity for retinoic acid receptor RAR alpha in transcriptional activation assay
T4 sequence (P10276 whole entry): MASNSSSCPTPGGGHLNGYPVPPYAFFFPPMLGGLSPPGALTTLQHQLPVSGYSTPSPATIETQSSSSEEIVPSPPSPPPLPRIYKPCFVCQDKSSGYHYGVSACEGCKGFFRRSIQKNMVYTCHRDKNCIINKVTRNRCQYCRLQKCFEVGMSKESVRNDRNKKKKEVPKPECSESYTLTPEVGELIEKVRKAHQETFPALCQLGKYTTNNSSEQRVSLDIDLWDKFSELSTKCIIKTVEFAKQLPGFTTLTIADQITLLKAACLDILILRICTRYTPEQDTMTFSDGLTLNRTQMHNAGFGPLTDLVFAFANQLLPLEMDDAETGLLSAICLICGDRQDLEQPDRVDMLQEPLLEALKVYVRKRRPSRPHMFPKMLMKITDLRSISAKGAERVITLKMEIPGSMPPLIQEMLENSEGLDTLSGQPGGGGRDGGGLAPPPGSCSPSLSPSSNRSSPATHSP

[5] = biological target: T5, Retinoic acid receptor RXR-beta (Homo sapiens, UniProt P28702); assay: Agonist activity for retinoic acid receptor RXR beta in transcriptional activation assay
T5 sequence (P28702 whole entry): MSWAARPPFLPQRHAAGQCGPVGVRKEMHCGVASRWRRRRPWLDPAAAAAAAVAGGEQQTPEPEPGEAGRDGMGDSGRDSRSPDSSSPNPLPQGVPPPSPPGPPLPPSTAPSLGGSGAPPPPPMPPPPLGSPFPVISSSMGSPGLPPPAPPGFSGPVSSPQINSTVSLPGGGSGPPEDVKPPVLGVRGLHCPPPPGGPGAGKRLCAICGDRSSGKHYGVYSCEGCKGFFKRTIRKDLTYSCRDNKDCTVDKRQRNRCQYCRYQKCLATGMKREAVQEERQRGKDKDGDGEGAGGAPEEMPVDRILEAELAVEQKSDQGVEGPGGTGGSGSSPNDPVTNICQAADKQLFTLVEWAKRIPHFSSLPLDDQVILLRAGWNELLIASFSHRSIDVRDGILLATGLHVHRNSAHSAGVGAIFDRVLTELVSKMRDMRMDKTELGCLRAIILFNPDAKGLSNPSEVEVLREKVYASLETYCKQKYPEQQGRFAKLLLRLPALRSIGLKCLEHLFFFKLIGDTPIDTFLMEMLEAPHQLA

[6] = biological target: T6, Retinoic acid receptor gamma (Homo sapiens, UniProt P13631); assay: Agonist activity for retinoic acid receptor RAR gamma in transcriptional activation assay
T6 sequence (P13631 whole entry): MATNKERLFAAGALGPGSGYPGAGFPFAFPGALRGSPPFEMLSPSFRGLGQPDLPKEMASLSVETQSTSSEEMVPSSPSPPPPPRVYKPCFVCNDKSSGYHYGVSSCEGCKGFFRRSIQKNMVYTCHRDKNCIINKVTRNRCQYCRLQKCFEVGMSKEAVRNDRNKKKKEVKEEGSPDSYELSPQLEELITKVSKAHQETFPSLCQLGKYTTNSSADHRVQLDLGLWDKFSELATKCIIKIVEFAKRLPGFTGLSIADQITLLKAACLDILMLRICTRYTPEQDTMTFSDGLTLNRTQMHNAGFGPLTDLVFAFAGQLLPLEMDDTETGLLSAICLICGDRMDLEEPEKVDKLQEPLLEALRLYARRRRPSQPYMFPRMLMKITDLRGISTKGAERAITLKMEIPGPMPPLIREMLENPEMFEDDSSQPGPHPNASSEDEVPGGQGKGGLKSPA

[7] = biological target: T2, Retinoic acid receptor beta; assay: Agonist activity for retinoic acid receptor RAR beta in transcriptional activation assay; […]
[8] = biological target: T4, Retinoic acid receptor alpha; assay: Agonist activity for retinoic acid receptor RAR alpha in transcriptional activation assay; […]
[9] = biological target: T6, Retinoic acid receptor gamma; assay: Agonist activity for retinoic acid receptor RAR gamma in transcriptional activation assay; […]

Q: How did the EC50 [1] turn out when `C/C(=C\c1ncc(C(=O)O)s1)c1ccc2c(c1)C(C)(C)CCC2(C)C` was run?
A: Its EC50 is 210 nM.

Q: And the EC50 [2]?
A: Its EC50 is 46 nM.

Q: What about the EC50 ([3]; read-out: EC50) of the same compound?
A: Its EC50 is 160 nM.

Q: And the EC50 [4]?
A: Its EC50 is 210 nM.

Q: And the EC50 [5]?
A: Its EC50 is 210 nM.

Q: What about the EC50 [6] of the same compound?
A: The EC50 was 34 nM.

Q: `C/C(=C\c1ncc(C(=O)O)n1S(=O)(=O)N(C)C)c1cc2c(cc1C)C(C)(C)CCC2(C)C` was tested. Which EC50 [1] did it give?
A: Its EC50 is 59 nM.

Q: What about the EC50 [7] of the same compound?
A: The EC50 was “Not Active”.

Q: And the EC50 ([3]; read-out: EC50)?
A: The EC50 was 86 nM.

Q: And the EC50 [8]?
A: The EC50 was “Not Active”.

Q: And the EC50 [5]?
A: The EC50 was 180 nM.

Q: And the EC50 [9]?
A: Its EC50 is “Not Active”.

Q: With `C/C(=C\c1nc(C(=O)O)c[nH]1)c1cc2c(cc1C)C(C)(C)CCC2(C)C` as the compound, how does the EC50 [1] read?
A: Its EC50 is 89 nM.

Q: What about the EC50 [7] of the same compound?
A: The EC50 was “Not Active”.

Q: And the EC50 ([3]; read-out: EC50)?
A: The EC50 was 170 nM.

Q: What about the EC50 [8] of the same compound?
A: Its EC50 is “Not Active”.

Q: And the EC50 [5]?
A: The EC50 was 130 nM.

Q: And the EC50 [9]?
A: The EC50 was “Not Active”.

Q: `C/C(=C\c1ccc(C(=O)O)cc1)c1ccc2c(c1)C(C)(C)CCC2(C)C` was tested. Which EC50 [3] did it give?
A: The EC50 was “Not Active”.

Q: Which results are given for `C/C(=C\c1cc(C(=O)O)cs1)c1cc2c(cc1C)C(C)(C)CCC2(C)C`?
A: EC50 [1]: 215 nM; EC50 [2]: 1990 nM; EC50 ([3]; read-out: EC50): 105 nM; EC50 [8]: Not Active; EC50 [5]: 180 nM; EC50 [6]: 979 nM

Q: Which EC50 [1] does the source give for `C/C(=C\c1ccc(C(=O)O)s1)c1cc2c(cc1C)C(C)(C)CCC2(C)C` here?
A: The EC50 was 35 nM.

Q: What about the EC50 [2] of the same compound?
A: The EC50 was 56 nM.

Q: What about the EC50 ([3]; read-out: EC50) of the same compound?
A: The EC50 was 33 nM.

Q: What about the EC50 [8] of the same compound?
A: Its EC50 is “Not Active”.

Q: And the EC50 [5]?
A: Its EC50 is 23 nM.

Q: And the EC50 [6]?
A: The EC50 was 131 nM.

Q: What does the source list for `C/C(=C\c1ccc(C(=O)O)s1)c1ccc2c(c1)C(C)(C)CCC2(C)C`?
A: EC50 [1]: 2400 nM; EC50 [2]: 29 nM; EC50 ([3]; read-out: EC50): 2300 nM; EC50 [4]: 690 nM; EC50 [5]: 2300 nM; EC50 [6]: 15 nM

Q: For `C/C(=C\c1ncc(C(=O)O)s1)c1cc2c(cc1C)C(C)(C)CCC2(C)C`, which EC50 [1] is on record?
A: The EC50 was 4 nM.

Q: What about the EC50 [2] of the same compound?
A: The EC50 was 220 nM.

Q: And the EC50 ([3]; read-out: EC50)?
A: The EC50 was 4 nM.

Q: What about the EC50 [8] of the same compound?
A: Its EC50 is “Not Active”.

Q: And the EC50 [5]?
A: The EC50 was 3 nM.

Q: What about the EC50 [6] of the same compound?
A: The EC50 was 200 nM.
